From paper PMC5509420 (Molecular Biology of the Cell, 2017)
Positions count from the first letter of the chain named.

Experiments:
Sse1 [1] = biological target: T1, Sse1 (Saccharomyces cerevisiae, UniProt P32589, F439L/L433A/M441A/N434P); experiment: fluorescence polarization/anisotropy, saturation binding one-site fit
T1 sequence (P32589 2-693 L433A/N434P/F439L/M441A): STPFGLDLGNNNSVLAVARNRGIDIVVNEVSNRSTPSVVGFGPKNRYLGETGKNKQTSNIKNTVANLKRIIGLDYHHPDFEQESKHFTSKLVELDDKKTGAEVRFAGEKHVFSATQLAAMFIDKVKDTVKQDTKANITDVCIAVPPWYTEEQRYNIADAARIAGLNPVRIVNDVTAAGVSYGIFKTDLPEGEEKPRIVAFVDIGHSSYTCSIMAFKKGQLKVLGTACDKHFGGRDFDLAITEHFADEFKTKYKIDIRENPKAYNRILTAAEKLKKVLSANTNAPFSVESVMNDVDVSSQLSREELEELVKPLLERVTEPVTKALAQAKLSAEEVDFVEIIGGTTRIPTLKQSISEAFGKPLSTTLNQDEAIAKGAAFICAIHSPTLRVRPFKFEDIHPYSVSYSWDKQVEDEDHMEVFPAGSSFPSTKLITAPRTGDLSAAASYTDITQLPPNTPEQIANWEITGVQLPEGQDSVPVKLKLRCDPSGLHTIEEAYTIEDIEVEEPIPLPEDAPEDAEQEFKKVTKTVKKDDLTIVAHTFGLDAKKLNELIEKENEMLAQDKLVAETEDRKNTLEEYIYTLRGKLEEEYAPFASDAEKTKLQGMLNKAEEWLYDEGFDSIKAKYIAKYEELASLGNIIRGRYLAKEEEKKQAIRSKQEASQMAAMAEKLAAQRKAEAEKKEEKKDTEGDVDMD

Sse1 [2] = biological target: T2, Sse1 (Saccharomyces cerevisiae, UniProt P32589); experiment: as above
T2 sequence (P32589 2-693): T1 sequence (P32589 2-693 L433A/N434P/F439L/M441A) with A432L, P433N, L438F, A440M

- Kd (Sse1 [1]): 12.1 ± 1.9 µM
- Kd (Sse1 [2]): 8.6 ± 1.4 µM
SMILES: O=C(NCCCCCCNc1ncnc2c1ncn2[C@@H]1O[C@H](COP(=O)(O)OP(=O)(O)OP(=O)(O)O)[C@@H](O)[C@H]1O)c1ccc2c(c1)C(=O)OC21c2ccc(O)cc2Oc2cc(O)ccc21 [N^6-(6-amino)hexyl-ATP-5-FAM]
